According to patent US7700631B2, “Phosphodiesterase 4 inhibitors” (Memory Pharmaceuticals Corporation, priority 2002, dated 2010):

What was measured:
rats [1] = test: Passive Avoidance in Rats, an in vivo Test for Learning and Memory; set-up: species or system rat; settings: MK-801 0.1 mg/kg, compared to the vehicle, p<0.001, 24 hours after shock
Description: The test was performed as previously described (Zhang, H.-T., Crissman, A. M., Dorairaj, N. R., Chandler, L. J., and O'Donnell, J. M., Neuropsychopharmacology, 2000, 23, 198-204.). The apparatus (Model E10-16SC, Coulbourn Instruments, Allentown, Pa.) consisted of a two-compartment chamber with an illuminated compartment connected to a darkened compartment by a guillotine door. The floor of the darkened compartment consisted of stainless steel rods through which an electric foot-shock could be delivered from a constant current source. All experimental groups were first habituated to the apparatus the day before the start of the experiment. During the training, the rat (Male Spraque-Dawley (Harlan) weighing 250 to 350 g) was placed in the illuminated compartment facing away from the closed guillotine door for 1 minute before the door was raised. The latency for entering the darkened compartment was recorded. After the rat entered the darkened compartment, the door was closed and a 0.5 mA electric shock was administered for 3 seconds. […] The latency for entering the darkened compartment was recorded for up to 180 seconds, at which time the trial was terminated.
(§1) All data were analyzed by analyses of variance (ANOVA); individual comparisons were made using Kewman-Keuls tests. […]

rats [2] = test: Radial Arm Maze Task in Rats, an In Vivo Test for Learning and Memory; set-up: species or system rat; settings: MK-801 0.1 mg/kg i.p., compared to control, p<0.01
Description: The test was performed as previously described (Zhang, H.-T., Crissman, A. M., Dorairaj, N. R., Chandler, L. J., and O'Donnell, J. M., Neuropsychopharmacology, 2000, 23, 198-204.). Five days after initial housing, rats (male Spraque-Dawley (Harlan) weighing 250 to 350 g) were placed in the eight-arm radial maze (each arm was 60×10×12 cm high; the maze was elevated 70 cm above the floor) for acclimation for two days. Rats were then placed individually in the center of the maze for 5 minutes with food pellets placed close to the food wells, and then, the next day, in the wells at the end of the arms; 2 sessions a day were conducted. Next, four randomly selected arms were then baited with one pellet of food each. The rat was restricted to the center platform (26 cm in diameter) for 15 seconds and then allowed to move freely throughout the maze until it collected all pellets of food or 10 minutes passed, whichever came first. Four parameters were recorded: 1) working memory errors, i.e., entries into baited arms that had already been visited during the same trial; 2) reference memory errors, i.e., entries into unbaited arms; 3) total arm entries; and 4) the test duration (seconds), i.e., the time spent in the collection of all the pellets in the maze. […]
as §1

C[C@]12N[C@H](Cc3ccccc31)c1ccccc12 [MK-801]
latency for entering the darkened compartment (rats [1]): markedly reduced this latency
frequencies of working and reference memory errors (rats [2]): increased the frequencies of both working and reference memory errors
